Literature values in patent US20160074480A1, “INNOVATIVE METHODS OF TREATMENTING TUBERCULOSIS” (priority 2015, published 2016).

Test system: TB bacteria
Details: laboratory dishes, including strains resistant to available anti-tuberculosis drug; cited from earlier work

## O=C1O[C@H]([C@@H](O)CO)C(O)=C1O [Vitamin C, L-ascorbic acid]
  killing of TB bacteria: killed TB bacteria
